Values of other authors as cited in patent US10196337B2, “Processes for the preparation of hydroxylated cyclohexyl compounds” (priority 2016, dated 2019).

System: A2780 ovarian cancer cell line
Conditions: compounds isolated from bark extract of Pleiogynium timorense, literature ref. 1, read-out: IC50 against the A2780 ovarian cancer cell line

IC50 [nM]	Molecule
800	pleiogenone C [compound 3]
700	pleiogenone B [compound 2]

Molecule	IC50 [nM]
CCCCCCCC/C=C\CCCCCCC[C@]1(O)C(=O)C=C[C@H](O)[C@H]1O [compound 1, pleiogenone A]	800
